Earlier results on three molecules are cited in paper PMC10726920 (Cancer Medicine, 2023).

Data set [1] relates to r/r pediatric ALL. Conditions: with cyclophosphamide, etoposide, cited from earlier work.
Data set [2] deals with r/r ALL in second relapse or greater. Conditions: added to intensive chemotherapy, cited from earlier work.
Data set [3] deals with ALL at first relapse. Also on record: method as in PMID 29603593. Conditions: cited from earlier work.
In data set [4] the test system is r/r ALL. On the set-up: method as in PMID 25724525. Conditions: combined with Hyper‐CVAD; cited from earlier work.
Data set [5] relates to lymphoid neoplasms. On the set-up: method as in PMID 22080480. Conditions: cited from earlier work.

Structures are written as SMILES.

On to `CO[C@H]1C[C@@H]2CC[C@@H](C)[C@@](O)(O2)C(=O)C(=O)N2CCCC[C@H]2C(=O)O[C@H]([C@H](C)C[C@@H]2CC[C@@H](OC(=O)C(C)(CO)CO)[C@H](OC)C2)CC(=O)[C@H](C)/C=C(\C)[C@@H](O)[C@@H](OC)C(=O)[C@H](C)C[C@H](C)/C=C/C=C/C=C/1C` [temsirolimus], for which the overall response rate in data set [1] (15 patients) is on record as 47%. Moreover, the “CR or CRi” value in data set [1] is on record as 26%. Further, the patients achieving remission in data set [2] (Seven of 15) is on record as 47%. Also, the “patients with minimal residual disease <0.01%” value in data set [2] (three patients) is reported as 20%.
For the molecule `CO[C@H]1C[C@@H]2CC[C@@H](C)[C@@](O)(O2)C(=O)C(=O)N2CCCC[C@H]2C(=O)O[C@H]([C@H](C)C[C@@H]2CC[C@@H](OCCO)[C@H](OC)C2)CC(=O)[C@H](C)/C=C(\C)[C@@H](O)[C@@H](OC)C(=O)[C@H](C)C[C@H](C)/C=C/C=C/C=C/1C` [Everolimus], the patients with meningitis in data set [3] (dose level 3, Two out of twelve) is given as 17%. Further, the “patients obtaining remission (CR2)” value in data set [3] (with multi‐agent chemotherapy, Nineteen of 22) is on record as 86%. Besides, the DLT entry in data set [3] (with multi‐agent chemotherapy) is recorded as “elevated liver enzymes in one patient”. Also, in data set [4], the “CR or CRi in patients with only one prior line of therapy” value is reported as “Six of 11”, the “dose‐limiting toxicity” value was “G3 mucositis” and the overall response rate is given as 33%.
As to `COc1cccc2cc(-c3nc([C@H]4CC[C@H](C(=O)O)CC4)n4ncnc(N)c34)[nH]c12` [OSI‐027], in data set [5], the “sensitivity of ALL across a series of lymphoid neoplasms” value is “most sensitive”.
